Legend:
[1] = system: eyes of ocular normotensive cynomolgus monkeys; experiment: Intraocular pressure (IOP) by Goldmann applanation tonometry after 5 twice-daily unilateral topical treatments; format: in vivo, cynomolgus monkeys (Macaca fascicularis); conditions: for IOP less than at baseline prior to the 5th treatment: one eye, both treated and control eye; for IOP decrease prior to the fifth treatment on day 3: both eyes
Procedure: Ocular normotensive adult cynomolgus monkeys (Macaca fascicularis), of either sex, weighing 3-7 kg were anesthetized with i.m. ketamine HCl (3-25 mg/kg, supplemented with 1-10 mg/kg) for IOP and topical drop administration. All monkeys were free of any ocular abnormalities according to slit lamp biomicroscopy at the time measurements were taken. The monkeys were provided by the Primate Center at the University of Wisconsin-Madison. All experiments were done in accordance with the ARVO Statement on the Use of Animals in Ophthalmic and Vision Research.
(§1) The intraocular pressure (IOP) was determined with a “minified” Goldmann applanation tonometer [Kaufman, 1980] using HALF AND HALF™ creamer solution (Borden) as the tear film indicator [Croft, 1997] with the monkey lying prone in a head holder and the eyes positioned 4 to 8 cm above the heart. All monkeys were examined by slit-lamp before the first IOP measurement in each protocol. For each eye, two or three IOP measurements were averaged as a baseline.
Under ketamine anesthesia (KETAJECT™, Phoenix Pharmaceutical, St Joseph, Mo. (3-25 mg/kg i.m., supplemented with 1-10 mg/kg i.m. as needed) baseline IOP was determined, usually between 7:30 and 9 am (2 readings, 5 minutes apart; if IOP baseline measurements were not within 2-3 mm Hg of each other, a 3rd reading was taken 5 min later). Baseline IOP was at least 15 mmHg if possible. A baseline blood sample was taken from the femoral artery or vein, or sometimes the brachial vein (1-2 ml). This was allowed to clot and then spun down (3000 rpm for 10 min, Damon/IEC NH-SII centrifuge) and the serum removed and frozen at −20 C for no more than 1 week. Baseline systolic, diastolic and mean arterial pressure as well as heart rate were recorded with the Dinamap monitor from a cuff placed around the arm or the leg.
After baseline measurements, the monkey was place supine with the eye pointing up and the eyelid held open. A 5 μl drop of test material or vehicle was delivered to opposite eyes. The eyelid was held open for at least 30 sec and the eye was maintained in the upward position for an additional 30 sec. The monkey was then returned to its cage and allowed to wake up. In the afternoon, at least 6 hours after the morning treatment, another treatment was administered. On the second day, dosing was repeated in the am and pm.
(§2) On the 3th day, prior to the 5th treatment, baseline IOP, biomicroscopy and MAP were determined. Preliminary studies indicated an effect was observed after these treatments but not after a single treatment. Following the 5th dose, IOP was measured at 1, 2, 3, 4, 5, 6, 7, 8, 12 (if possible), 24, and sometimes 48 hr. Biomicroscopy was done at 1, 3, 6, 24 and sometimes 48 hr. MAP on day 3 (some protocols) was determined at 1, 2, 3, 4, 5, 6, 7, 8, 24 and sometimes 48 hr if possible. Blood samples after the 5th treatment were collected at 6, 24, and sometimes 48 hr. For some protocols, IOP was also measured prior to each treatment; MAP was measured prior to the morning treatment; blood was collected prior to the afternoon treatment. Subsequent screening protocols will not include the MAP and blood collections and will only measure IOP at baseline and prior to and for 1-6 hr after the 5th treatment.
Adult cynomolgus monkeys (Macaca fascicularis) of either sex were anesthetized with intramuscular ketamine HCl (10 mg/kg initial, 5 mg/kg supplemental). Baseline pretreatment IOP was determined by Goldmann applanation tonometry [Kaufman, 1980] with […] used as a tear film indicator [Croft, 1997]. Two baseline IOP measurements were taken 5 minutes apart. […]

[2] = Ocular inflammation by slit-lamp biomicroscopy; format: in vivo, cynomolgus monkeys (Macaca fascicularis); conditions: Example 1; 5 topical treatments, 5 μg (2MD 6 μg)
Procedure: as §1, §2
Baseline pretreatment IOP was determined by Goldmann applanation tonometry [Kaufman, 1980] with […] used as a tear film indicator [Croft, 1997]. Two baseline IOP measurements were taken 5 minutes apart. Monkeys were then treated topically with 5 μl of 1,25-dihydroxyvitamin D3 (1,25-(OH)2D3) (0.1-5 μg) to one eye and vehicle (propylene glycol) to the opposite eye twice a day for 5 treatments total. […] IOP was also measured prior to the afternoon treatment. On the third day, IOP was measured prior to the morning treatment. Following the fifth treatment, IOP was measured hourly for 8 hours and, in some cases, also at 12, 24, and 48 hours. […]

[3] = Example 3, 5 μg unilateral topical

C=C1/C(=C\C=C2/CCC[C@]3(C)[C@@H]([C@H](C)CCCC(C)(C)O)CC[C@@H]23)C[C@@H](O)C[C@@H]1O [1,25-(OH)2D3, 1α,25-dihydroxyvitamin D3]
IOP in treated eye compared with control eye ([1]; Example 1, 5 μg (2MD 6 μg) in 5 μl propylene glycol one eye, vehicle opposite eye): consistently, but not significantly less than in the control eye
IOP less than at baseline prior to the 5th treatment ([1]; Example 1, 5 μg in 5 μl propylene glycol twice daily, n=8): 3-4 mmHg
IOP less than at baseline prior to the 5th treatment ([1]; Example 1, 5 μg twice daily, n=8, p<0.05): ~17%
time of gradual recovery of IOP toward baseline ([1]; Example 1, 5 μg, after 5th treatment): 24 to 48 h
additional IOP decrease after the 5th treatment ([1]; Example 1, 5 μg, hr 1-4 after 5th dose): 1-2 mmHg
total IOP reduction after the 5th treatment ([1]; Example 1, 5 μg, hr 1-4 after 5th dose, p<0.02): 20-30%
strongest response, IOP decrease ([1]; Example 1, 5 uniocular topical treatments): up to 40%
rank order of ocular hypotensive effect ([1]; Example 1, 5 uniocular topical treatments at the same dose): 1,25(OH)2D3>2MD>AGR
effect on IOP ([1]; Example 3, 0.1 μg unilateral topical, either eye): did not have any significant effect on IOP in either eyes
IOP reduction in control versus treated eyes ([1]; Example 3, 1 μg): stronger IOP reduction in the fellow control eyes than in the treated eyes
IOP reduction (bilateral) ([1]; Example 3, 1 μg unilateral topical): 20%
IOP difference between treated and control eyes ([1]; Example 3, 5 μg): no significant differences between the two eyes except for the time period of 12 h or longer
IOP reduction, control eyes ([1]; Example 3, 5 μg in opposite eye): 27%
IOP reduction, treated eye [1, 3]: 30%
IOP decrease prior to the fifth treatment on day 3 [1, 3]: ~3 mmHg
IOP decrease prior to the fifth treatment on day 3 ([1]; Example 3, 5 μg unilateral topical, p<0.05): approximately 20%
time of return of IOP to near pretreatment baseline ([1]; Example 3, 5 μg, after fifth treatment): 48 h
duration of IOP-lowering effect ([1]; topical application, nonhuman primates): more than 12 hours
ocular inflammation [2]: no ocular inflammation at any time-point

Reference: patent publication US9452177B2, “Vitamin D compounds and methods for reducing ocular hypertension (OHT)” (Wisconsin Alumni Research Foundation, priority 2008, dated 2016)
